Laboratory results reported in patent publication US10329324B2 (viDA Therapeutics Inc., priority 2013, dated 2019).
pIC50: −log10 of the molar value.

Test system: not listed separately
Assay: Kinetic solubility determination in PBS
Format: physicochemical
Details: PBS 1X pH 7.4, 2.0% DMSO, 24 hour incubation at ambient temperature
Procedure: Kinetic solubility buffer (phosphate buffered saline (PBS, 1×) at pH 7.4) was prepared from PBS (10×) solution, (Fisher Scientific, Pittsburgh, Pa., USA, 10×), by adding PBS (50 mL, 10×) to approximately water (450 mL HPLC grade). The volume of the solution was then adjusted to 500 mL for a total dilution factor of 1:10 and a final PBS concentration of 1×. The pH of the final solution (PBS (1×)) was measured and found to be 7.4.
A DMSO stock solution (typically 10 mM or greater) was used for each compound to be tested. A final DMSO concentration of 2.0% and maximum theoretical compound concentration of typically 200 μM (or greater) was achieved by diluting an aliquot (6 μl) of each stock with kinetic solubility buffer (294 μl, PBS (1×) at pH 7.4) using a liquid handling system (Hamilton STARlet, Hamilton Robotics, Inc., Reno, Nev., USA) and incubated directly in a solubility filter plate (Millipore, Billerica, Mass., USA). Following 24 hour incubation at ambient temperature (20.5-21.7° C.), each sample was vacuum filtered. The filtrate was injected into the chemiluminescent nitrogen detector for quantification (Automated Discovery Workstation, Analiza, Inc., Cleveland, Ohio, USA). Each result was reported both in μM and μg/mL units. Three separate on-board performance indicating standards were assayed in triplicate with each test compound to ensure test results were within the acceptable range.
The equimolar nitrogen response of the detector was calibrated using standards which spanned the dynamic range of the instrument from 0.08 to 4500 μg/ml nitrogen. Each filtrate was quantified with respect to this calibration curve. Each calculated solubility value was corrected for background nitrogen present in the DMSO, and buffer used to prepare each sample. All reported values for samples containing adjacent nitrogen atoms in a ring structure were corrected for the expected non-equimolar response. Each calculated solubility result assumed that each sample was free of nitrogen containing impurities and was stable under the assay conditions. Analyses were performed at Analiza Inc. (Cleveland, Ohio, USA) by published methods (Bhattachar, S. N., et al, J. Pharma. BioMed Anal. 41:152-7 2006).

Row | Structure (SMILES) | Solubility in aqueous PBS Buffer (1X, pH 7.4), uM | Solubility in aqueous PBS Buffer (1X, pH 7.4), ug/mL
1 | CC[C@H](C)[C@H](NC(=O)Cc1csc2ccccc12)C(=O)N[C@H]1CCc2cccc3c2N(C1=O)[C@H](C(=O)NCc1c[nH]nn1)C3 [Willoughby 20, reference compound] | 4.2-4.9 uM | 2.6-3.0 ug/mL

Same assay, conditions: phosphate buffered saline (PBS 1×), 21 °C, pH 7.4, aqueous buffer, kinetic from dmso stock, PBS 1X pH 7.4, 2.0% DMSO, 24 hour incubation at ambient temperature, read-out: Solubility in aqueous PBS Buffer (1X, pH 7.4)

Row | Structure (SMILES) | solubility at 24 h [µM]
2 | CC[C@H](C)[C@H](NC(=O)Cc1ccccc1)C(=O)NCC(=O)N1c2ccccc2C[C@H]1C(=O)NCc1csnn1 [Example B2, (2S)-1-{2-[(2S,3S)-3-Methyl-2-(2-Phenylacetamido)Pentanamido]Acetyl}-N-(1,2,3-Thiadiazol-4-Ylmethyl)-2,3-Dihydro-1H-Indole-2-Carboxamide] | 12.6

Same assay, conditions: phosphate buffered saline (PBS 1×), 21 °C, pH 7.4, aqueous buffer, kinetic from dmso stock, PBS 1X pH 7.4, 2.0% DMSO, 24 hour incubation at ambient temperature, read-out: Solubility in aqueous PBS Buffer (1X, pH 7.4), ug/mL

Row | Structure (SMILES) | solubility at 24 h [µg/mL]
3 | CC[C@H](C)[C@H](NC(=O)Cc1ccccc1)C(=O)NCC(=O)N1c2ccccc2C[C@H]1C(=O)NCc1csnn1 [Example B2, (2S)-1-{2-[(2S,3S)-3-Methyl-2-(2-Phenylacetamido)Pentanamido]Acetyl}-N-(1,2,3-Thiadiazol-4-Ylmethyl)-2,3-Dihydro-1H-Indole-2-Carboxamide] | 8.4

Biological target: T1, human Granzyme B (hGzmB) (Homo sapiens, UniProt P10144)
T1 construct: purchased Froelich Lab, Northshore University Health Systems Research Institute, Evanston, Ill., USA
T1 sequence (P10144 21-247): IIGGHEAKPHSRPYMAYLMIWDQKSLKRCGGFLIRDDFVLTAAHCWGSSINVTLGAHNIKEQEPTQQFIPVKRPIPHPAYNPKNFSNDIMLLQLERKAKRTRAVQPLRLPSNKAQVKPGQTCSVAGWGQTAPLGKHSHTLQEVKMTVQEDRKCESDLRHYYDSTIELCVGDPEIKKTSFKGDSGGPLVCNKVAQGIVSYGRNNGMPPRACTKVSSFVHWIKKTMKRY
Assay: Human Granzyme B enzymatic inhibition assay (fluorogenic, kinetic)
Format: biochemical
Details: activity codes, Table 7; read-out: IC50 Activity Range
Procedure: A specific 2× assay buffer was prepared for the enzyme to be tested (see Table 2 for final 1× assay buffer compositions). If the assay buffer included DTT, it was added immediately prior to running the assay. A 2× enzyme mix was prepared (see Table 3 for enzyme assay conditions) at 80 uL per well. Compounds were screened at one or two appropriate concentrations (to determine the percent inhibition at those concentrations) and/or a full dose response curve (typically 8 points, to identify the IC50) in duplicate, triplicate, or higher replicates as needed. An appropriate control was also assessed in full dose response, in duplicate for each assay/plate. Background control wells consisted of 1× assay buffer, DMSO (5% v/v) and substrate. Positive control wells consisted of enzyme, DMSO (5% v/v) and substrate. Test compounds and control compounds were diluted in DMSO to […] the final desired concentration. For example, a test compound may be tested in dose response, in serial, tripling dilution condition starting at 20 uM and ending at 9.1 nM (or any appropriate concentration range and dilution scheme). Control compounds were prepared similarly. Diluted compounds were prepared in a dilution plate and transferred to the reaction plate (96-well medium binding plate (Greiner Bio-One FLUOTRAC™)) to allow for the desired final concentrations when added to the enzyme with AB. After mixing, the reaction plate was placed on a shaker (at 300 RPM) for 5 min, followed by incubation (covered) on the bench, for 20 min. Plates were warmed to reaction temperature (see Table 3) for a total incubation time of 30 min. Plates so prepared were ready for addition of substrate and the subsequent reaction.
(§1) An appropriate substrate for each assay was prepared in advance at 2× the final desired concentration (see Table 2) in DMSO. The appropriate substrate mix was added to each appropriate well on the reaction plate, and the plate was read immediately in the TECAN plate reader (TECAN INFINITE® M1000 Pro), set to the correct wavelength as needed for each assay (see Table 3) using 25 cycles, kinetic interval of 1 min, number of reads per well of 20 with shaking set to 1 s, double orbital, 2 mm amplitude. For fluorescent assays the gain was set to optimal (50%).
An in vitro fluorogenic detection assay for assessing the IC50 and/or percent inhibition at a given concentration of inhibitors against human Granzyme B (hGzmB) enzyme was performed as described in Example D1. When appropriate, percent inhibition data was collected and fitted to generate IC50 data using GraphPad Prism 5 (GraphPad Software, La Jolla Calif. USA, www.graphpad.com) and its non-linear regression analysis tools or other equivalent tools. […]
as §1, with “5)” for “2)”, “assay buffer. 30 uL of the” for “DMSO. The”, “6)” for “3)”, “15” for “25”, “(100% with gain regulation) for all assays except human GzmB which was set to 85 (with the z set at 23000 um).” for “(50%).”
An in vitro fluorogenic detection assay for assessing the IC50 and/or percent inhibition at a given concentration of inhibitors against human Granzyme B (hGzmB) enzyme was performed as described in Example D5. When appropriate, percent inhibition data was collected and fitted to generate IC50 data using GraphPad Prism 5 (GraphPad Software, La Jolla Calif. USA, www.graphpad.com) and its non-linear regression analysis tools or other equivalent tools.

Row | Structure (SMILES) | pIC50
4 | O=C(O)CCC(=O)N[C@H](C(=O)NCC(=O)N1c2ccccc2C[C@H]1C(=O)NCc1nn[nH]n1)c1ccccc1 [Example C38, 3-{[(S)-({2-Oxo-2-[(2S)-2-[(2H-1,2,3,4-Tetrazol-5-Ylmethyl)Carbamoyl]-2,3-Dihydro-1H-Indol-1-Yl]Ethyl}Carbamoyl)(Phenyl)Methyl]Carbamoyl}Propanoic Acid] | 6.00 to 7.00
5 | CC[C@@H](C)[C@H](NC(=O)Cc1ccccc1)C(=O)NCC(=O)N1c2ccccc2C[C@H]1C(=O)NCc1nn[nH]n1 [Example A42, (2S)-1-{2-[(2S,3R)-3-Methyl-2-(2-Phenylacetamido)Pentanamido]Acetyl}-N-(2H-1,2,3,4-Tetrazol-5-Ylmethyl)-2,3-Dihydro-1H-Indole-2-Carboxamide] | 5.00 to 6.00
6 | CC[C@H](C)[C@H](NC(=O)Cc1ccccc1)C(=O)N[C@H](CC(=O)O)C(=O)N1c2ccccc2C[C@H]1C(=O)NCc1nn[nH]n1 [Example C15, (3R)-3-[(2S,3S)-3-Methyl-2-(2-Phenylacetamido)Pentanamido]-4-Oxo-4-[(2S)-2-[(2H-1,2,3,4-Tetrazol-5-Ylmethyl)Carbamoyl]-2,3-Dihydro-1H-Indol-1-Yl]Butanoic Acid] | 5.00 to 6.00
7 | O=C(Cc1ccccc1)N[C@H](C(=O)NCC(=O)N1c2ccccc2C[C@H]1C(=O)NCc1nn[nH]n1)C1CCCCC1 [Example A11, (2S)-1-{2-[(2S)-2-Cyclohexyl-2-(2-Phenylacetamido)Acetamido]Acetyl}-N-(2H-1,2,3,4-Tetrazol-5-Ylmethyl)-2,3-Dihydro-1H-Indole-2-Carboxamide] | 5.00 to 6.00
8 | CC(C)C[C@H](NC(=O)Cc1ccccc1)C(=O)NCC(=O)N1c2ccccc2C[C@H]1C(=O)NCc1nn[nH]n1 [Example C4, (2S)-1-{2-[(2S)-4-Methyl-2-(2-Phenylacetamido)Pentanamido]Acetyl}-N-(2H-1,2,3,4-Tetrazol-5-Ylmethyl)-2,3-Dihydro-1H-Indole-2-Carboxamide] | 5.00 to 6.00
9 | CC(C)(C)[C@H](NC(=O)Cc1ccccc1)C(=O)NCC(=O)N1c2ccccc2C[C@H]1C(=O)NCc1nn[nH]n1 [Example C6, (2S)-1-{2-[(2S)-3,3-Dimethyl-2-(2-Phenylacetamido)Butanamido]Acetyl}-N-(2H-1,2,3,4-Tetrazol-5-Ylmethyl)-2,3-Dihydro-1H-Indole-2-Carboxamide] | 5.00 to 6.00
10 | O=C(O)CCC(=O)NC1(C(=O)NCC(=O)N2c3ccccc3C[C@H]2C(=O)NCc2nn[nH]n2)CCCC1 [Example C29, 3-{[1-({2-Oxo-2-[(2S)-2-[(2H-1,2,3,4-Tetrazol-5-Ylmethyl)Carbamoyl]-2,3-Dihydro-1H-Indol-1-Yl]Ethyl}Carbamoyl)Cyclopentyl]Carbamoyl}Propanoic Acid] | < 5.00
11 | CC[C@H](C)[C@H](NC(=O)[C@@H](O)[C@H](O)C(=O)O)C(=O)NCC(=O)N1c2ccccc2C[C@H]1C(=O)NCc1nn[nH]n1 [Example A33, (2S,3S)-2,3-Dihydroxy-3-{[(1S,2S)-2-Methyl-1-({2-Oxo-2-[(2S)-2-[(2H-1,2,3,4-Tetrazol-5-Ylmethyl)Carbamoyl]-2,3-Dihydro-1H-Indol-1-Yl]Ethyl}Carbamoyl)Butyl]Carbamoyl}Propanoic Acid] | > 7.00
12 | CC[C@H](C)[C@H](NC(=O)CC(C)CC(=O)O)C(=O)NCC(=O)N1c2ccccc2C[C@H]1C(=O)NCc1nn[nH]n1 (stereo partly drawn) [Example A17, 3-Methyl-4-{[(1S,2S)-2-Methyl-1-({2-Oxo-2-[(2S)-2-[(2H-1,2,3,4-Tetrazol-5-Ylmethyl)Carbamoyl]-2,3-Dihydro-1H-Indol-1-Yl]Ethyl}Carbamoyl)Butyl]Carbamoyl}Butanoic Acid] | > 7.00
13 | CC[C@H](C)[C@H](NC(=O)C[C@H](N)C(=O)O)C(=O)NCC(=O)N1c2ccccc2C[C@H]1C(=O)NCc1nn[nH]n1 [Example A39, (2S)-2-Amino-3-{[(1S,2S)-2-Methyl-1-({2-Oxo-2-[(2S)-2-[(2H-1,2,3,4-Tetrazol-5-Ylmethyl)Carbamoyl]-2,3-Dihydro-1H-Indol-1-Yl]Ethyl}Carbamoyl)Butyl]Carbamoyl}Propanoic Acid] | 6.00 to 7.00
14 | CC[C@H](C)[C@H](NC(=O)CCC(C(=O)O)c1ccccc1)C(=O)NCC(=O)N1c2ccccc2C[C@H]1C(=O)NCc1nn[nH]n1 (stereo partly drawn) [Example A51, 4-{[(1S,2S)-2-Methyl-1-({2-Oxo-2-[(2S)-2-[(2H-1,2,3,4-Tetrazol-5-Ylmethyl)Carbamoyl]-2,3-Dihydro-1H-Indol-1-Yl]Ethyl}Carbamoyl)Butyl]Carbamoyl}-2-Phenylbutanoic Acid] | > 7.00
15 | CC[C@H](C)[C@H](NC(=O)C[C@@H](N)C(=O)O)C(=O)NCC(=O)N1c2ccccc2C[C@H]1C(=O)NCc1nn[nH]n1 [Example A40, (2R)-2-Amino-3-{[(1S,2S)-2-Methyl-1-({2-Oxo-2-[(2S)-2-[(2H-1,2,3,4-Tetrazol-5-Ylmethyl)Carbamoyl]-2,3-Dihydro-1H-Indol-1-Yl]Ethyl}Carbamoyl)Butyl]Carbamoyl}Propanoic Acid] | 6.00 to 7.00
16 | CC[C@H](C)[C@H](NC(=O)OC(C)(C)C)C(=O)NCC(=O)N1c2ccccc2C[C@H]1C(=O)NCc1nn[nH]n1 [Example I-5, tert-Butyl N-[(1S,2S)-2-methyl-1-({2-oxo-2-[(2S)-2-[(2H-1,2,3,4-tetrazol-5-ylmethyl)carbamoyl]-2,3-dihydro-1H-indol-1-yl]ethyl}carbamoyl)butyl]carbamate] | 5.00 to 6.00
